# Reference: US9643960B2, “Procaspase activating compounds” (The Board of Trustees of the University of Illinois, priority 2009, dated 2017)
# Read-outs that look alike come from different tables or passages of the source.
# Experiments:
# GL-1 = experiment: Cytotoxicity in GL-1 cells (sulforhodamine B, 72 h); format: cell-based; settings: Canis lupus familiaris, GL-1, Dog Lymphoma
# MDA-MB-231 = experiment: Cytotoxicity in MDA-MB-231 cells (sulforhodamine B, 72 h); format: cell-based; settings: MDA-MB-231, Human Breast
# HeLa = experiment: Cytotoxicity in HeLa cells (sulforhodamine B, 72 h); format: cell-based; settings: Human Cervical
# SK-Mel-5 = experiment: Cytotoxicity in SK-Mel-5 cells (sulforhodamine B, 72 h); format: cell-based; settings: SK-Mel-5, Human Melanoma
# 17-71 = experiment: Cytotoxicity in 17-71 cells (MTS cell viability assay); format: cell-based; settings: Canis lupus familiaris, 17-71, Dog Lymphoma
# OSW = experiment: Cytotoxicity in OSW cells (sulforhodamine B, 72 h); format: cell-based; settings: Canis lupus familiaris, Dog Lymphoma
# U-937 cells = experiment: Induction of apoptosis, annexin V/PI staining; format: cell-based, human; settings: 50 μM, 12 hours
# Experimental: The cells were centrifuged (200 g for 5 min), washed with PBS (2 mL), resuspended in 500 μL Annexin V Binding Buffer. To each sample was added 10 μL of FITC conjugated Annexin V stain (Southern Biotech) and 10 μL of propidium iodide (Sigma) to a final concentration of 50 μg/mL. Cell populations were analyzed on a Benton Dickinson LSR II cell flow cytometer.
# [1] = Solubility in β-cyclodextran; format: physicochemical
# [2] = test system: healthy research hound dog; experiment: Neurotoxicity in dogs; format: in vivo
# Description: Further information about this compound is described elsewhere herein.
# EL-4 = experiment: Cytotoxicity in EL-4 cells (sulforhodamine B, 72 h); format: cell-based; settings: EL4, EL-4, Mouse Lymphoma
# Jurkat = experiment: Cytotoxicity in Jurkat cells (sulforhodamine B, 72 h); format: cell-based; settings: Human Leukemia
# C57/BL6 mice = experiment: Neurotoxicity in mice after intravenous administration; format: in vivo, mouse; settings: for Neurotoxicity: Mice, preliminary results
# [3] = Formulation of PAC-1 in aqueous 2-hydroxypropyl-β-cyclodextrin; format: physicochemical
# Description: Formulation of PAC-1. […] Complete dissolution requires acidification of the aqueous solution to pH 1.5-2, and then the solution is restored to pH 5-6.
# [4] = test system: U937 human lymphoma cells; experiment: Cell death assay in U937 cells (sulforhodamine B, 72 h); format: cell-based; settings: Homo sapiens, U-937, 72 h
# Experimental: To each well was added 2 μL of 100× compound stock solutions in DMSO at varying concentrations so that the cells were treated with concentrations between 0 μM and 100 μM compound. Each concentration was tested in quintuplicate. In each plate 5 wells received 10 μM etoposide as a positive control and 5 wells received 2 μL of DMSO as a negative control. […] 1 Specifically, to each well of the plate was added 50 μL of an 80% (w/v) solution of TCA in H2O and the plates were allowed to rest at 4° C. overnight. The plates were then washed gently with a steam of H2O five times to remove the excess TCA and precipitated serum proteins. […] After staining, the wells were gently washed 5 times with 100 μL of 1% (v/v) acetic acid to remove the unbound dye. The plates were then allowed to air dry. […] The OD was then read at 510 nm in a Molecular Dynamics plate reader and the percent cell death calculated and normalized to the positive control (100% cell death) and the negative control (0% cell death). The percent cell death was averaged for each compound concentration and plotted as a function of compound concentration. The data were fit to a logistical dose response curve using Table curve 2D and the IC50 value was calculated. The experiment was repeated three times and the average of the calculated IC50 values was reported. The standard error of the mean (SEM) was determined and reported for the triplicate experiments.
# U-937 cells grow in culture as a suspension.
smiles,measurement,setting,value
C=CCc1cccc(/C=N/NC(=O)CN2CCN(Cc3ccccc3)CC2)c1O [PAC-1],IC50,GL-1,4.9 ± 0.3 µM
same,IC50,MDA-MB-231,9.9 ± 1 µM
same,IC50,HeLa,15.5 ± 3.8 µM
same,IC50,SK-Mel-5,11.5 ± 3.6 µM
same,IC50,17-71,2.5 ± 0.9 µM
same,IC50,OSW,8.6 ± 1.3 µM
same,apoptosis (annexin V staining),U-937 cells,~40%
same,Solubility in β-Cyclodextran (mg β-CD/μmol Compound),[1],5.3 mg β-CD/μmol Compound
same,toxicity at higher doses,"[2]; dog, formulation with 2-hydroxypropyl-β-cyclodextrin",acute neurological toxicity (ataxia and seizure)
same,duration of neurotoxicity,"[2]; one hound dog, 60 mg/kg i.v.",20 min
same,IC50,EL-4,3.8 ± 0.9 µM
same,IC50,Jurkat,5.7 ± 2.8 µM
same,Neurotoxicity,C57/BL6 mice; 12.5 mg/kg,No
same,Neurotoxicity,C57/BL6 mice; 37.5 mg/kg,Yes
same,clinical signs of toxicity,"C57/BL6 mice; mice, 10 mg/kg i.v., observed 24 hours",no clinical signs of toxicity were observed
same,clinical signs of toxicity,"C57/BL6 mice; mice, 20 mg/kg i.v.","mild neurological symptoms including lethargy, and mild ataxia"
same,persistence of symptoms after injection,"C57/BL6 mice; mice, 20 mg/kg i.v.",20 min
same,ataxia (incidence),"C57/BL6 mice; mice, 30 mg/kg i.v.",3/3
same,clinical signs of toxicity,"C57/BL6 mice; mice, 30 mg/kg i.v.",overt signs of neurotoxicity
same,duration of neurotoxicity,"C57/BL6 mice; mice, 30 mg/kg i.v.",approximately 15 minutes
same,loss of balance (incidence),"C57/BL6 mice; mice, 30 mg/kg i.v.",3/3
same,onset of neurotoxicity after injection,"C57/BL6 mice; mice, 30 mg/kg i.v.",≤ 5 min
same,spasms (incidence),"C57/BL6 mice; mice, 30 mg/kg i.v.",1/3
same,clinical signs of toxicity,"C57/BL6 mice; mice, 50 mg/kg i.v.",acute neurotoxic symptoms with more pronounced ataxia and loss of balance
same,solubility,"[3]; aqueous 200 mg/mL 2-hydroxypropyl-β-cyclodextrin solution, aqueous with cosolvent or surfactant or cyclodextrin, aqueous 200 mg/mL solution of 2-hydroxypropyl-β-cyclodextrin",20 mg/mL
same,stability in solution,"[3]; stored at 4° C., pH 5-6",at least 5 days
same,IC50,"[4]; read-out: IC50 Value (μM), U-937, Human Lymphoma, 72 hours",9.3 ± 0.5 µM
same,IC50,"[4]; read-out: U937 (IC50 μM), 72 h exposure, sulforhodamine B assay",4.8 ± 1 µM
